# Tests used:
# Format in all cases: cell-based
# Design in all cases: dose or concentration left out as unconfirmed
# [1] = tested on: prostate tumor cell line DU-145; experiment: Viability assay, Trypan blue exclusion, prostate tumor cell line DU-145; conditions: Homo sapiens, DU-145, 96 hours, read-out: percent cell death (% Death), DU145
# Procedure: (§1) The effect of the sulfones on normal fibroblasts and on tumor cells of prostate, colon, lung and breast origin was examined utilizing the following cell lines: prostate tumor cell line DU-145; colorectal carcinoma cell line DLD-1; non-small cell lung carcinoma cell line H157; and breast tumor cell line BT-20. BT-20 is an estrogen-unresponsive cell line. NIH/3T3 and HFL are normal murine and human fibroblasts, respectively. BT-20, DLD-1 and H157 were grown in Dulbecco's modified Eagle's medium (DMEM) containing 10% fetal bovine serum supplemented with penicillin and streptomycin. DU145 was cultured in RPMI with 10% fetal bovine serum containing penicillin and streptomycin. NIH3T3 and HFL cells were grown in DMEM containing 10% calf serum supplemented with penicillin and streptomycin. All cell cultures were maintained at 37° C. in a humidified atmosphere of 5% CO2.
# (§2) Cells were treated with test compound […] concentration and cell viability was determined after 96 hours by the Trypan blue exclusion method. Activity for each compound is reported as a range of cell induced death (% Death) with the lowest activity in the range of 5-10%.
# [2] = tested on: colorectal carcinoma cell line DLD-1; experiment: Viability assay, Trypan blue exclusion, colorectal carcinoma cell line DLD-1; conditions: Homo sapiens, DLD-1, 96 hours, read-out: percent cell death (% Death), DLD-1
# Procedure: as §1, §2
# [3] = tested on: non-small cell lung carcinoma cell line H157; experiment: Viability assay, Trypan blue exclusion, non-small cell lung carcinoma cell line H157; conditions: Homo sapiens, NCI-H157, 96 hours, read-out: percent cell death (% Death), H157
# Procedure: as §1, §2
# [4] = tested on: breast tumor cell line BT-20; experiment: Viability assay, Trypan blue exclusion, breast tumor cell line BT-20; conditions: Homo sapiens, BT-20, 96 hours, read-out: percent cell death (% Death), BT20
# Procedure: as §1, §2
SMILES,cytotoxicity [1] [%],cytotoxicity [2] [%],cytotoxicity [3] [%],cytotoxicity [4] [%]
"O=S(=O)(/C=C/c1ccccn1)Cc1ccc(F)cc1 [Example 1, (E)-2-Pyridineethenyl-4-fluorobenzylsulfone]",5 to 10,5 to 10,5 to 10,5 to 10
"O=S(=O)(/C=C/c1cccnc1)Cc1ccc(F)cc1 [Example 2, (E)-3-Pyridineethenyl-4-fluorobenzylsulfone]",5 to 10,5 to 10,5 to 10,5 to 10
"O=S(=O)(/C=C/c1ccccn1)Cc1ccc(Cl)cc1 [Example 4, (E)-2-Pyridineethenyl-4-chlorobenzylsulfone]",5 to 10,5 to 10,5 to 10,5 to 10
"O=S(=O)(/C=C/c1cccnc1)Cc1ccc(Cl)cc1 [Example 5, (E)-3-Pyridineethenyl-4-chlorobenzylsulfone]",5 to 10,5 to 10,5 to 10,5 to 10
"O=S(=O)(/C=C/c1ccncc1)Cc1ccc(Cl)cc1 [Example 6, (E)4-Pyridineethenyl4-chlorobenzylsulfone]",5 to 10,5 to 10,5 to 10,5 to 10
"O=S(=O)(/C=C/c1ccccn1)Cc1ccc(Br)cc1 [Example 7, (E)-2-Pyridineethenyl-4-bromobenzylsulfone]",5 to 10,5 to 10,5 to 10,5 to 10
"O=S(=O)(/C=C/c1cccnc1)Cc1ccc(Br)cc1 [Example 8, (E)-3-Pyridineethenyl-4-bromobenzylsulfone]",10 to 15,10 to 15,10 to 15,10 to 15
"O=S(=O)(/C=C/c1ccncc1)Cc1ccc(Br)cc1 [Example 9, (E)-4-Pyridineethenyl-4-bromobenzylsulfone]",5 to 10,5 to 10,5 to 10,5 to 10
"O=S(=O)(/C=C/c1cccs1)Cc1ccc(F)cc1 [Example 10, (E)-2-Thiopheneethenyl-4-fluorobenzylsulfone]",5 to 10,5 to 10,5 to 10,5 to 10
"O=S(=O)(/C=C/c1cccs1)Cc1ccc(Cl)cc1 [Example 11, (E)-2-Thiopheneethenyl4-chlorobenzylsulfone]",5 to 10,5 to 10,5 to 10,5 to 10
"O=S(=O)(/C=C/c1cccs1)Cc1ccc(Br)cc1 [Example 12, (E)-2-Thiopheneethenyl-4-bromobenzylsulfone]",5 to 10,5 to 10,5 to 10,5 to 10
"O=S(=O)(/C=C/c1cc(Br)cs1)Cc1ccc(F)cc1 [Example 13, (E)-4-Bromo-2-thiopheneethenyl-4-fluorobenzylsulfone]",5 to 10,5 to 10,5 to 10,5 to 10
"O=S(=O)(/C=C/c1cc(Br)cs1)Cc1ccc(Cl)cc1 [Example 14, (E)-4-Bromo-2-thiopheneethenyl-4-chlorobenzylsulfone]",5 to 10,5 to 10,5 to 10,5 to 10
"O=S(=O)(/C=C/c1cc(Br)cs1)Cc1ccc(Br)cc1 [Example 15, (E)-4-Bromo-2-thiopheneethenyl-4-bromobenzylsulfone]",5 to 10,5 to 10,5 to 10,5 to 10
"O=S(=O)(/C=C/c1ccc(Br)s1)Cc1ccc(F)cc1 [Example 16, (E)-5-Bromo-2-thiopheneethenyl-4-fluorobenzylsulfone]",5 to 10,5 to 10,5 to 10,5 to 10
"O=S(=O)(/C=C/c1ccc(Br)s1)Cc1ccc(Cl)cc1 [Example 17, (E)-5-Bromo-2-thiopheneethenyl-4-chlorobenzylsulfone]",5 to 10,5 to 10,5 to 10,5 to 10

# Source: patent publication US6599932B1, “Alpha, beta-unsaturated sulfones for treating proliferative disorders” (Temple University-Of The Commonwealth System of Higher …, priority 2000, dated 2003)
